Test results: patent US20060069132A1, “Azolecarboxamide herbicides” (priority 2004, published 2006)

Experiments:
lambsquarters = assay: Test B pre-/postemergence herbicide test; assay type: in vivo, Chenopodium album; conditions: for Lambsquarters plant response rating: postemergence, scale 0 (no effect) to 100 (complete control)
Outline: (§1)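 Plants compared with untreated controls 13–15 days post-treatment and given a visual 0–100 injury score. Applications: preemergence to seeds; postemergence at 1- to 4-leaf (2–18 cm); paddy species flooded, 2-leaf stage. Vehicle non-phytotoxic, surfactant included.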

[1] = system: small flower umbrella sedge; assay: Test B flooded paddy test; assay type: in vivo, Cyperus difformis; conditions: 1000 g ai/ha, scale 0 to 100 (0 no effect, 100 complete control)
Outline: (§2)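 Postemergence plants were sprayed with formulated test chemicals at 2 to 18 cm height (1- to 4-leaf stage); paddy species were grown to the 2-leaf stage. After 13 to 15 days in a greenhouse, injury was rated visually against untreated controls on a 0–100 scale (0 = no effect, 100 = complete control).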

rice [2] = assay: Test B pre-/postemergence herbicide test; assay type: in vivo, Oryza sativa; conditions: 0 = no effect, 100 = complete control, preemergence
Outline: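 Greenhouse pot assay with simultaneous preemergence (treated seed) and postemergence (2–18 cm seedlings) applications of surfactant-containing, non-phytotoxic solvent formulations. Response scored visually 13–15 days later on a 0–100 scale, 100 meaning complete control.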

ducksalad [3] = assay: Test C flooded paddy test; assay type: in vivo, Heteranthera limosa
wheat = assay: Test B postemergence herbicide test; assay type: in vivo, Triticum aestivum; set-up: key to Wheat plant response rating: 0 = no effect, 100 = complete control; conditions: postemergence, visual rating, scale 0 (no effect) to 100 (complete control)
Outline: (§3)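 Each value is a visual 0–100 response rating taken against controls 13 to 15 days after treatment in the greenhouse. Plants received formulated chemical postemergence at the 1- to 4-leaf stage or, in flooded paddy, at the 2-leaf stage.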

barnyardgrass [4] = assay: Test C flooded paddy test; assay type: in vivo, Echinochloa crus-galli
Outline: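 Ratings (0 = no effect, 100 = complete control) come from visual comparison with untreated plants after 12 to 14 days in the greenhouse. Treatment was postemergence at the 1- to 4-leaf stage (2–18 cm), or at the 2-leaf stage for the flooded paddy barnyardgrass.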

giant foxtail = assay: Test B pre-/postemergence herbicide test; assay type: in vivo, Setaria faberi; conditions: for Foxtail, Giant plant response rating: postemergence, scale 0 (no effect) to 100 (complete control)
Outline: as §1

[5] = system: smallflower umbrella sedge; assay: Test C flooded paddy test; assay type: in vivo, Cyperus difformis
barnyardgrass [6] = assay: Test B flooded paddy test; assay type: in vivo, Echinochloa crus-galli; conditions: 1000 g ai/ha, scale 0 to 100 (0 no effect, 100 complete control)
Outline: as §2

large crabgrass = assay: Test B pre-/postemergence herbicide test; assay type: in vivo, Digitaria sanguinalis; conditions: for Crabgrass, Large plant response rating: postemergence, scale 0 (no effect) to 100 (complete control)
Outline: as §1

pigweed = assay: Test B pre-/postemergence herbicide test; assay type: in vivo, Amaranthus retroflexus; conditions: for Pigweed plant response rating: postemergence, scale 0 (no effect) to 100 (complete control)
Outline: as §1

blackgrass = assay: Test B postemergence herbicide test; assay type: in vivo, Alopecurus myosuroides; conditions: postemergence, visual rating, scale 0 (no effect) to 100 (complete control)
Outline: as §2

velvetleaf = assay: Test B pre-/postemergence herbicide test; assay type: in vivo, Abutilon theophrasti; conditions: for Velvetleaf plant response rating: postemergence, scale 0 (no effect) to 100 (complete control)
Outline: as §1

cocklebur = assay: Test B pre-/postemergence herbicide test; assay type: in vivo, Xanthium strumarium; conditions: for Cocklebur plant response rating: postemergence, scale 0 (no effect) to 100 (complete control)
Outline: (§4)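 Seeds were planted and treated preemergence with compounds formulated in a non-phytotoxic solvent mixture containing surfactant, while plants at the 1- to 4-leaf stage (2 to 18 cm) received postemergence sprays. Flooded paddy plants were grown to the 2-leaf stage. After 13 to 15 days in a greenhouse, injury was visually rated 0–100 against untreated controls.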

rice [7] = assay: Test B flooded paddy test; assay type: in vivo, Oryza sativa; conditions: 1000 g ai/ha, scale 0 to 100 (0 no effect, 100 complete control)
Outline: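 Formulated test chemicals went onto postemergence plants measuring 2 to 18 cm, at one to four leaves. For the paddy assay, species had reached two leaves. Scoring took place 13–15 days later by eye, relative to untreated plants, using 0 for no effect up to 100 for full control.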

rice [8] = assay: Test C flooded paddy test; assay type: in vivo, Oryza sativa
Outline: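 Plants were grown to the 1- to 4-leaf stage (2–18 cm) and then treated postemergence, or grown to the 2-leaf stage for the flooded paddy test. They were held in a greenhouse for 12 to 14 days and then scored by eye against controls, where 0 is no effect and 100 is complete control.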

Surinam grass = assay: Test B pre-/postemergence herbicide test; assay type: in vivo, Urochloa decumbens; conditions: for Surinam Grass plant response rating: postemergence, scale 0 (no effect) to 100 (complete control)
Outline: as §1

ducksalad [9] = assay: Test B flooded paddy test; assay type: in vivo, Heteranthera limosa; conditions: 1000 g ai/ha, scale 0 to 100 (0 no effect, 100 complete control)
Outline: as §2

barnyardgrass [10] = assay: Test B pre-/postemergence herbicide test; assay type: in vivo, Echinochloa crus-galli; conditions: for Barnyardgrass plant response rating: postemergence, scale 0 (no effect) to 100 (complete control)
Outline: as §4

corn = assay: Test B pre-/postemergence herbicide test; assay type: in vivo, Zea mays; conditions: for Corn plant response rating: postemergence, scale 0 (no effect) to 100 (complete control)
Outline: as §1

morningglory = assay: Test B pre-/postemergence herbicide test; assay type: in vivo, Ipomoea coccinea; conditions: for Morningglory plant response rating: postemergence, scale 0 (no effect) to 100 (complete control)
Outline: as §4

wild oat = assay: Test B postemergence herbicide test; assay type: in vivo, Avena fatua; conditions: postemergence, visual rating, scale 0 (no effect) to 100 (complete control)
Outline: as §3

[11] = 125 g ai/ha, 0 = no effect, 100 = complete control, preemergence
[12] = 500 g ai/ha, visual rating, 0 = no effect, 100 = complete control, preemergence
[13] = 62 g ai/ha, scale 0 to 100 (0 no effect, 100 complete control)
[14] = 125 g ai/ha, scale 0 to 100 (0 no effect, 100 complete control)
[15] = 250 g ai/ha, scale of 0 to 100, 0 is no effect, 100 is complete control
[16] = 500 g ai/ha, visual rating after 12 to 14 days, scale 0 to 100 (0 no effect, 100 complete control)

CCc1nc(C(C)(C)C)sc1C(=O)Nc1cc(C(=O)N(C)CC)ccc1F [Compound 231]
Lambsquarters plant response rating (0 to 100 scale) (lambsquarters; [11]): 80 | Plant response rating, Lambsquarters (lambsquarters; [12]): 100 | Lambsquarters plant response rating (lambsquarters; 125 g ai/ha, visual rating): 60 | Lambsquarters plant response rating (lambsquarters; 500 g ai/ha, visual rating): 70 | Sedge, Umbrella plant response rating [1]: 90 | Rice plant response rating (0 to 100 scale) (rice [2]; 125 g ai/ha): 20 | Plant response rating, Rice (rice [2]; 500 g ai/ha, visual rating): 50 | Ducksalad plant response rating (ducksalad [3]; [13]): 10 | Ducksalad plant response rating (ducksalad [3]; [14]): 60 | Ducksalad plant response rating (ducksalad [3]; [15]): 70 | Plant response rating, Ducksalad (ducksalad [3]; [16]): 80 | Wheat plant response rating (wheat; 125 g ai/ha): 20 | Wheat plant response rating (wheat; 500 g ai/ha): 40 | Barnyardgrass plant response rating (barnyardgrass [4]; [13]): 40 | Barnyardgrass plant response rating (barnyardgrass [4]; [14]): 45 | Barnyardgrass plant response rating (barnyardgrass [4]; [15]): 75 | Plant response rating, Barnyardgrass (barnyardgrass [4]; [16]): 80 | Foxtail, Giant plant response rating (0 to 100 scale) (giant foxtail; [11]): 60 | Plant response rating, Foxtail, Giant (giant foxtail; [12]): 90 | Foxtail, Giant plant response rating (giant foxtail; 125 g ai/ha, visual rating): 20 | Foxtail, Giant plant response rating (giant foxtail; 500 g ai/ha, visual rating): 30 | Sedge, Umbrella plant response rating [5, 13]: 10 | Sedge, Umbrella plant response rating [5, 14]: 55 | Sedge, Umbrella plant response rating [5, 15]: 65 | Plant response rating, Sedge, Umbrella [5, 16]: 75 | Barnyardgrass plant response rating (barnyardgrass [6]): 80 | Crabgrass, Large plant response rating (0 to 100 scale) (large crabgrass; [11]): 30 | Plant response rating, Crabgrass, Large (large crabgrass; [12]): 90 | Crabgrass, Large plant response rating (large crabgrass; 125 g ai/ha, visual rating): 20 | Crabgrass, Large plant response rating (large crabgrass; 500 g ai/ha, visual rating): 20 | Pigweed plant response rating (0 to 100 scale) (pigweed; [11]): 60 | Plant response rating, Pigweed (pigweed; [12]): 100 | Pigweed plant response rating (pigweed; 125 g ai/ha, visual rating): 50 | Pigweed plant response rating (pigweed; 500 g ai/ha, visual rating): 70 | Blackgrass plant response rating (blackgrass; 125 g ai/ha): 20 | Blackgrass plant response rating (blackgrass; 500 g ai/ha): 30 | Velvetleaf plant response rating (0 to 100 scale) (velvetleaf; [11]): 30 | Plant response rating, Velvetleaf (velvetleaf; [12]): 90 | Velvetleaf plant response rating (velvetleaf; 125 g ai/ha, visual rating): 30 | Velvetleaf plant response rating (velvetleaf; 500 g ai/ha, visual rating): 50 | Cocklebur plant response rating (0 to 100 scale) (cocklebur; [11]): 0 | Plant response rating, Cocklebur (cocklebur; [12]): 30 | Cocklebur plant response rating (cocklebur; 125 g ai/ha, visual rating): 10 | Cocklebur plant response rating (cocklebur; 500 g ai/ha, visual rating): 40 | Rice plant response rating (rice [7]): 80 | Rice plant response rating (rice [8]; [13]): 30 | Rice plant response rating (rice [8]; [14]): 55 | Rice plant response rating (rice [8]; [15]): 75 | Plant response rating, Rice (rice [8]; [16]): 80 | Surinam Grass plant response rating (0 to 100 scale) (Surinam grass; [11]): 20 | Plant response rating, Surinam Grass (Surinam grass; [12]): 60 | Surinam Grass plant response rating (Surinam grass; 125 g ai/ha, visual rating): 10 | Surinam Grass plant response rating (Surinam grass; 500 g ai/ha, visual rating): 30 | Ducksalad plant response rating (ducksalad [9]): 90 | Barnyardgrass plant response rating (0 to 100 scale) (barnyardgrass [10]; [11]): 50 | Plant response rating, Barnyardgrass (barnyardgrass [10]; [12]): 80 | Barnyardgrass plant response rating (barnyardgrass [10]; 125 g ai/ha, visual rating): 10 | Barnyardgrass plant response rating (barnyardgrass [10]; 500 g ai/ha, visual rating): 40 | Corn plant response rating (0 to 100 scale) (corn; [11]): 0 | Plant response rating, Corn (corn; [12]): 50 | Corn plant response rating (corn; 125 g ai/ha, visual rating): 10 | Corn plant response rating (corn; 500 g ai/ha, visual rating): 20 | Morningglory plant response rating (0 to 100 scale) (morningglory; [11]): 10 | Plant response rating, Morningglory (morningglory; [12]): 10 | Morningglory plant response rating (morningglory; 125 g ai/ha, visual rating): 20 | Morningglory plant response rating (morningglory; 500 g ai/ha, visual rating): 70 | Oat, Wild plant response rating (wild oat; 125 g ai/ha): 20 | Oat, Wild plant response rating (wild oat; 500 g ai/ha): 40
